Test results from patent US8415359B2, “Phenylpyrrole derivative” (Daiichi Sankyo Company, Limited, priority 2008, dated 2013).

Molecular target: T1, human pancreatic GK (human glucokinase variant 1, GST-fused protein) (Homo sapiens, UniProt P35557)
T1 construct: made in house; host or cells: Escherichia coli (such as BL21 or JM109)
T1 sequence (P35557 1-465): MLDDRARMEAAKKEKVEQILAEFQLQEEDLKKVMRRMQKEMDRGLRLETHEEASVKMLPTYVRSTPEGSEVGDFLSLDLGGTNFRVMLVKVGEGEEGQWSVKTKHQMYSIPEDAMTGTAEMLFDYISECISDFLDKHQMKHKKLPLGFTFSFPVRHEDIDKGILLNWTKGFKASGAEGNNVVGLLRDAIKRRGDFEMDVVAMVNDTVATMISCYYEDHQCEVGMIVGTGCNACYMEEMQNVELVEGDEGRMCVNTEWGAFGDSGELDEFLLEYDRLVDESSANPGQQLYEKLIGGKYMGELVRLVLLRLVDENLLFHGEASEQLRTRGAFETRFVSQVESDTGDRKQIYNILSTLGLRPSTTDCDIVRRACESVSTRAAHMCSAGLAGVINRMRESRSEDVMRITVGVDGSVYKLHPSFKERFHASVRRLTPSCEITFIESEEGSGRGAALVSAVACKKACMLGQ
Experiment: GK activity test (GK activation rate)
Type: biochemical
Conditions: test compound 1 μM; glucose 5 mM; 30 min at room temperature; absorbance at 340 nm with test compound / without test compound
Procedure: cDNA encoding human pancreatic GK polypeptide (GenBank Accession No. NM_000162, human glucokinase variant 1) was cloned from a human cDNA library by polymerase chain reaction (PCR), and introduced into a glutathione S-transferase (GST)-fused protein expression vector (GEX4T, GE Healthcare Bioscience). The vector was introduced into Escherichia coli (such as BL21 or JM109, Invitrogen), and the transformed E. coli was cultured overnight at 37° C. followed by recovery of the cells. After freezing and thawing the recovered cells, the cells were suspended in phosphate buffer containing Triton-X at a final concentration of 1% followed by disrupting the cells with an ultrasonic homogenizer. The supernatant obtained by low-speed centrifugation treatment of the homogenate (10,000×g, 30 minutes) was further subjected to high-speed centrifugation (100,000×g, 10 minutes) followed by recovering the supernatant and purifying the fused protein using a GST fused protein purification system (Bulk GST Purification Module, GE Healthcare Bioscience). The GK fused protein was divided into smaller aliquots and stored at −80° C.
GK activity was measured using the GK purified in (1) above. More specifically, an enzyme solution was prepared by adding the purified GK of (1) above and glucose-6-phosphate dehydrogenase (Sigma) to solution 1 of a glucose assay kit (D-Glucose UV Method, Roche Diagnostics). The enzyme solution, a test compound diluent and glucose (final concentration: 5 mM) were mixed in a 96-well ELISA plate, and allowed to react for 30 minutes at room temperature. Following completion of the reaction, absorbance at a wavelength of 340 nm was measured using SpectraMax Plus (Molecular Probe). Furthermore, unreacted (when glucose was not added) absorbance was used for the background.
GK activation rates were indicated with values represented by the following numerical formula: (absorbance after reacting for 30 minutes when test compound added)/(absorbance after reacting for 30 minutes when test compound not added).

| Compound | GK Activation Rate |
| --- | --- |
| C[C@@H](CO)Oc1cc(Oc2ccc(S(C)(=O)=O)cc2)cc(-c2ccc(-c3nccs3)[nH]2)c1 [Example 2, (2S)-2-{3-[4-(Methylsulfonyl)phenoxy]-5-[5-(1,3-thiazol-2-yl)-1H-pyrrol-2-yl]phenoxy}propan-1-ol] | 1.9 |
| COC[C@H](C)Oc1cc(Oc2ncc(C(=O)N3CCC3)cc2Cl)cc(-c2ccc(-c3nccs3)[nH]2)c1 [Example 60, 5-(Azetidin-1-ylcarbonyl)-3-chloro-2-{3-[(1S)-2-methoxy-1-methylethoxy]-5-[5-(1,3-thiazol-2-yl)-1,1-pyrrol-2-yl]phenoxy}pyridine] | 2.0 |
| COC[C@H](C)Oc1cc(Oc2ccc(S(C)(=O)=O)cc2)cc(-c2ccc(-c3nccs3)[nH]2)c1 [Example 1, 2-(5-{3-[(1S)-2-Methoxy-1-methylethoxy]-5-[4-(methylsulfonyl)phenoxy]phenyl}-1H-pyrrol-2-yl)-1,3-thiazole] | 2.0 |
| COC[C@H](C)Oc1cc(Oc2ccc(S(C)(=O)=O)cc2)cc(-c2ccc(C3=NC[C@@H](C)O3)[nH]2)c1 [Example 33, (5R)-2-(5-{3-[(1S)-2-Methoxy-1-methylethoxy]-5-[4-(methylsulfonyl)phenoxy]phenyl}-1H-pyrrol-2-yl)-5-methyl-4,5-dihydro-1,3-oxazole] | 1.7 |

The next lines start with the values.

| GK Activation Rate | Compound |
| --- | --- |
| 2.0 | COC[C@H](C)Oc1cc(Oc2ncc(C(=O)N3CCC3)cc2Cl)cc(-c2ccc(C3=NCCO3)[nH]2)c1 [Example 73, 5-(Azetidin-1-ylcarbonyl)-3-chloro-2-{3-[5-(4,5-dihydro-1,3-oxazol-2-yl)-1,4-pyrrol-2-yl]-5-[(1S)-2-methoxy-1-methylethoxy]phenoxyl}pyridine] |
| 1.9 | COC[C@H](C)Oc1cc(Oc2cnc(C(=O)N3CCN(C)CC3)cn2)cc(-c2ccc(-c3nccs3)[nH]2)c1 [Example 64, 2-{3-[(1S)-2-Methoxy-1-methylethoxy]-5-[5-(1,3-thiazol-2-yl)-1H-pyrrol-2-yl]phenoxy}-5-[(4-methylpiperazin-1-yl)carbonyl]pyrazine] |
